Laboratory results as given in patent US20090008238A1, “TRANSPORTABLE GAS STERILIZATION UNIT, DISPOSABLE GAS GENERATOR, LIGHT ACTIVATED ANTI-INFECTIVE COATING AND METHOD OF DISINFECTION AND STERILIZATION USING CHLORINE DIOXIDE” (THE ARIZONA BD OF REG ON BEHALF OF THE UNIV OF AZ, priority 2004, published 2009).
Where “and” joins values, the source holds several entries; their conditions need not be identical. Equal values may be shown once.

Columns and labels:
B. subtilis (spore) = details: 2.5 minute exposure; cited from earlier work
A. niger = details: 2.5 minute exposure; cited from earlier work
MRSA = details: 2.5 minute exposure; cited from earlier work
S. aureus = details: 2.5 minute exposure; cited from earlier work
E. coli = details: 2.5 minute exposure; cited from earlier work
[1] = drank solution, up to a concentration of 24 ppm; cited from earlier work
[2] = relative to hypochlorite; cited from earlier work
[3] = low concentrations (20 mg/L) of gas; cited from earlier work
red blood cell = details: cited from earlier work
[4] = tested on: Bacillus subtilis var. niger spores; experiment: sporicidal effects of gas phase ClO2 on inoculated washers; format: cell-based; set-up: key to Sterility (Day 14): Yes indicates no turbidity was observed, sample is sterile.; No indicates turbidity observed, sample is not sterile; details: 4 hours; for Log Reduction: versus average of 2D and 2E
Description: Sterile washers were inoculated with 1.4×10^7 Bacillus subtilis var. niger spores and allowed to dry overnight. Solutions were prepared in sterile jars to obtain different chlorine dioxide levels. Five washers were suspended in each jar and exposed to one chlorine dioxide concentration for 4 hours in the dark. Two washers from each chlorine dioxide level were enumerated for log reduction and three washers from each chlorine dioxide concentration were analyzed for sterility. Log reduction samples were analyzed by placing one washer into 10 ml sterile Difco DE Neutralizing Broth, shaking for approximately 30 seconds and spread plating, in duplicate, onto Difco Trypticase Soy agar plates incubated at 35° C. for 48 hours. Sterility was determined by placing one washer in 50 ml sterile Difco Trypticase Soy Broth incubated at 35° C. for 14 days and visually checked daily for turbidity. Appropriate positive and negative controls were run with test samples.

Simian, Rotavirus SA11 = details: pH 10; cited from earlier work
[5] = concentrations up to 100 ppm, in drinking, as well as via the skin route; cited from earlier work

For `OCl` [SH, Sodium hypochlorite], the “minimum bactericidal concentration, B. subtilis (spore)” value (B. subtilis (spore)) is given as >1,000 ppm, the “minimum bactericidal concentration, A. niger” value (A. niger) is given as 1,000 ppm and the “minimum bactericidal concentration, MRSA” value (MRSA) is given as 10 ppm. The “minimum bactericidal concentration, S. aureus” value (S. aureus) was 10 ppm and the “minimum bactericidal concentration, E. coli” value (E. coli) was 10 ppm.

For Providone iodine [PVP-I], the “minimum bactericidal concentration, B. subtilis (spore)” value (B. subtilis (spore)) is listed as >1,000 ppm, the “minimum bactericidal concentration, A. niger” value (A. niger) is listed as 1,000 ppm and the “minimum bactericidal concentration, MRSA” value (MRSA) is listed as 100 ppm. The “minimum bactericidal concentration, S. aureus” value (S. aureus) was 100 ppm and the “minimum bactericidal concentration, E. coli” value (E. coli) was 10 ppm.

In the case of `[O-][Cl+]O` [chlorite ions], the “adverse effects in human volunteers” value [1] is given as “no adverse effects” and the “half-life for the elimination from the plasma” value [2] is given as “less than half that of hypochlorite”.

In the case of `O=CCCCC=O` [GA, Glutaraldehyde], the “minimum bactericidal concentration, B. subtilis (spore)” value (B. subtilis (spore)) is listed as 100,000 ppm, the “minimum bactericidal concentration, A. niger” value (A. niger) is listed as 100,000 ppm and the “minimum bactericidal concentration, MRSA” value (MRSA) is listed as 100,000 ppm. The “minimum bactericidal concentration, S. aureus” value (S. aureus) was 100,000 ppm and the “minimum bactericidal concentration, E. coli” value (E. coli) was 100,000 ppm.

In the case of Benzalkonium chloride [BAC], the “minimum bactericidal concentration, B. subtilis (spore)” value (B. subtilis (spore)) is listed as 1,000 ppm, the “minimum bactericidal concentration, A. niger” value (A. niger) is listed as 10,000 ppm and the “minimum bactericidal concentration, MRSA” value (MRSA) is listed as 100 ppm. For the same molecule, the “minimum bactericidal concentration, S. aureus” value (S. aureus) was 10 ppm and the “minimum bactericidal concentration, E. coli” value (E. coli) was 100 ppm.

In the case of `Oc1ccccc1` [PN, Phenol], the “minimum bactericidal concentration, B. subtilis (spore)” value (B. subtilis (spore)) is listed as >10,000 ppm, the “minimum bactericidal concentration, A. niger” value (A. niger) is listed as >10,000 ppm and the “minimum bactericidal concentration, MRSA” value (MRSA) is listed as >10,000 ppm. For the same molecule, the “minimum bactericidal concentration, S. aureus” value (S. aureus) was >10,000 ppm and the “minimum bactericidal concentration, E. coli” value (E. coli) was 10,000 ppm.

For `N=C(NCCCCCCNC(=N)NC(=N)Nc1ccc(Cl)cc1)NC(=N)Nc1ccc(Cl)cc1.O=C(O)[C@H](O)[C@@H](O)[C@H](O)[C@H](O)CO.O=C(O)[C@H](O)[C@@H](O)[C@H](O)[C@H](O)CO` [CHG, Chlorhexidine digluconate], the “minimum bactericidal concentration, B. subtilis (spore)” value (B. subtilis (spore)) is given as 1,000 ppm, the “minimum bactericidal concentration, A. niger” value (A. niger) is given as >10,000 ppm and the “minimum bactericidal concentration, MRSA” value (MRSA) is given as 1,000 ppm. For the same molecule, the “minimum bactericidal concentration, S. aureus” value (S. aureus) was 10 ppm and the “minimum bactericidal concentration, E. coli” value (E. coli) was 100 ppm.

For `[O][Cl+][O-]` [Chlorine Dioxide], the “minimum bactericidal concentration, B. subtilis (spore)” value (B. subtilis (spore)) is given as 100 ppm, the sterilant effectiveness [3] is given as “effective sterilant” and the “adverse effects in human volunteers” value [1] is given as “no adverse effects”. The “minimum bactericidal concentration, A. niger” value (A. niger) was 10 ppm, the “minimum bactericidal concentration, MRSA” value (MRSA) was 1 ppm and the “minimum bactericidal concentration, S. aureus” value (S. aureus) was 1 ppm. For the same molecule, the hematological changes (red blood cell; rats fed up to 1000 mg/l chronically for 6 months) was “no significant hematological changes”, the “red blood cell counts, hematocrit and hemoglobin” value (red blood cell; rats, after 9 months, all treatment groups) was “decreased” and the “CFU/ml Recovered Bacillus subtilis var. niger” value ([4]; 50 ppm gas phase) was 50,000 CFU/ml and 73,000 CFU/ml. For the same molecule, the “Sterility (Day 14)” value ([4]; 50 ppm gas phase) was “No”, the “Log Reduction” value ([4]; 50 ppm gas phase) was 2.30 and 2.13 and the “Sterility (Day 14)” value ([4]; 100 ppm gas phase) was “Yes”. The “Log Reduction” value ([4]; 100 ppm gas phase) was greater than 6, the “CFU/ml Recovered Bacillus subtilis var. niger” value ([4]; 200 ppm gas phase) was less than 1 CFU/ml and the “Sterility (Day 14)” value ([4]; 200 ppm gas phase) was “Yes”. The “Log Reduction” value ([4]; 200 ppm gas phase) was greater than 6.99, the “CFU/ml Recovered Bacillus subtilis var. niger” value ([4]; 300 ppm gas phase) was less than 1 CFU/ml and the “Sterility (Day 14)” value ([4]; 300 ppm gas phase) was “Yes”. The “Log Reduction” value ([4]; 300 ppm gas phase) was greater than 6.99, the “CFU/ml Recovered Bacillus subtilis var. niger” value ([4]; 400 ppm gas phase) was less than 1 CFU/ml and the “Sterility (Day 14)” value ([4]; 400 ppm gas phase) was “Yes”. The “Log Reduction” value ([4]; 400 ppm gas phase) was greater than 6.99, the “half-life for the elimination from the plasma” value [2] was “less than half that of hypochlorite” and the “time to good antiviral activity” value (Simian, Rotavirus SA11) was “less than 15 seconds”. The “fetal malformation or birth defects” value [5] was “no evidence of fetal malformation or birth defects” and the “minimum bactericidal concentration, E. coli” value (E. coli) was 1 ppm.

In the case of `CCO` [EtOH, Absolute Ethyl Alcohol], the “minimum bactericidal concentration, B. subtilis (spore)” value (B. subtilis (spore)) is given as 500,000 ppm, the “minimum bactericidal concentration, A. niger” value (A. niger) is given as 500,000 ppm and the “minimum bactericidal concentration, MRSA” value (MRSA) is given as 500,000 ppm. The “minimum bactericidal concentration, S. aureus” value (S. aureus) was 500,000 ppm and the “minimum bactericidal concentration, E. coli” value (E. coli) was 500,000 ppm.
